The values below come from the NIST ThermoML archive (doi:10.1021/je7007582).

The conditions of the data set: Liquid; for mass density: 298.15 K, 101.33 kPa, Pycnometric method; for Normal boiling temperature: Ebulliometric method (Recirculating still).

Numbers after ± are expanded uncertainties.

For orientation: mass density means the mass of a sample divided by its volume. `CC(C)CO` [2-methyl-1-propanol]: the mass density amounted to 797.8 ± 0.7 kg/m3 and the Normal boiling temperature amounted to 107.77 ± 0.05 °C. As to `CCCCO` [butan-1-ol], the mass density was found to be 805.7 ± 0.7 kg/m3. With `CCC(C)O` (stereo not drawn) [butan-2-ol], the mass density worked out at 802.3 ± 0.7 kg/m3 and the Normal boiling temperature was 99.48 ± 0.05 °C.

As for `CCO` [ethanol], the mass density came out at 785.2 ± 0.7 kg/m3 and the Normal boiling temperature is 78.31 ± 0.05 °C. With `CO` [methanol], the mass density is given as 786.6 ± 0.7 kg/m3 and the Normal boiling temperature is 64.49 ± 0.05 °C. For the molecule `CCCO` [propan-1-ol], the mass density is 799.6 ± 0.7 kg/m3 and the Normal boiling temperature was found to be 97.06 ± 0.05 °C. The corresponding values for `CC(C)O` [propan-2-ol] are 780.8 ± 0.7 kg/m3 and 82.2 ± 0.05 °C.
